# According to ChEMBL document CHEMBL1275533, “In vitro antibacterial activity of vertilmicin and its susceptibility to modifications by the recombinant AAC6'-APH2'' enzyme” (2008):
# Activity calls are given as the source filed them. The calls are words filed in the database; no cut-off is given here.
# Key:
# [1] = system: Escherichia coli; experiment: Antibacterial activity against non-gentamicin-resistant Escherichia coli clinical isolate after 18 hrs by agar dilution method; format: functional
# [2] = system: Klebsiella aerogenes; experiment: Antibacterial activity against non-gentamicin-resistant Enterobacter aerogenes clinical isolate after 18 hrs by agar dilution method; format: functional
# [3] = system: Citrobacter koseri; experiment: Antibacterial activity against non-gentamicin-resistant Citrobacter diversus clinical isolate after 18 hrs by agar dilution method; format: functional
# [4] = system: Proteus mirabilis; experiment: Antibacterial activity against non-gentamicin-resistant Proteus mirabilis clinical isolate after 18 hrs by agar dilution method; format: functional
# [5] = system: Morganella morganii; experiment: Antibacterial activity against non-gentamicin-resistant Morganella morganii clinical isolate after 18 hrs by agar dilution method; format: functional
# [6] = system: Citrobacter freundii; experiment: Antibacterial activity against non-gentamicin-resistant Citrobacter freundii clinical isolate after 18 hrs by agar dilution method; format: functional
# [7] = system: Providencia rettgeri; experiment: Antibacterial activity against non-gentamicin-resistant Proteus rettgeri clinical isolate after 18 hrs by agar dilution method; format: functional
# [8] = system: Pseudomonas aeruginosa; experiment: Antibacterial activity against non-gentamicin-resistant Pseudomonas aeruginosa clinical isolate after 18 hrs by agar dilution method; format: functional
# [9] = system: Haemophilus influenzae; experiment: Antibacterial activity against non-gentamicin-resistant Haemophilus influenzae clinical isolate after 18 hrs by agar dilution method; format: functional
# [10] = system: Haemophilus parainfluenzae; experiment: Antibacterial activity against non-gentamicin-resistant Haemophilus parainfluenzae clinical isolate after 18 hrs by agar dilution method; format: functional
# [11] = system: Escherichia coli; experiment: Antibacterial activity against non-gentamicin-resistant Escherichia coli clinical isolate assessed as susceptible isolates after 18 hrs by agar dilution method; format: functional
# [12] = system: Enterobacter cloacae; experiment: Antibacterial activity against non-gentamicin-resistant Enterobacter cloacae clinical isolate assessed as susceptible isolates after 18 hrs by agar dilution method; format: functional
# [13] = system: Klebsiella aerogenes; experiment: Antibacterial activity against non-gentamicin-resistant Enterobacter aerogenes clinical isolate assessed as susceptible isolates after 18 hrs by agar dilution method; format: functional
# [14] = system: Citrobacter koseri; experiment: Antibacterial activity against non-gentamicin-resistant Citrobacter diversus clinical isolate assessed as susceptible isolates after 18 hrs by agar dilution method; format: functional
# [15] = system: Proteus mirabilis; experiment: Antibacterial activity against non-gentamicin-resistant Proteus mirabilis clinical isolate assessed as susceptible isolates after 18 hrs by agar dilution method; format: functional
# [16] = system: Pseudomonas aeruginosa; experiment: Antibacterial activity against non-gentamicin-resistant Pseudomonas aeruginosa clinical isolate assessed as susceptible isolates after 18 hrs by agar dilution method; format: functional
# [17] = system: Pseudomonas sp.; experiment: Antibacterial activity against non-gentamicin-resistant Pseudomonas spp. clinical isolate assessed as susceptible isolates after 18 hrs by agar dilution method; format: functional
# [18] = system: Haemophilus parainfluenzae; experiment: Antibacterial activity against non-gentamicin-resistant Haemophilus parainfluenzae clinical isolate assessed as susceptible isolates after 18 hrs by agar dilution method; format: functional, organism-based
# [19] = system: Staphylococcus aureus; experiment: Antibacterial activity against non-gentamicin-resistant Staphylococcus aureus clinical isolate assessed as susceptible isolates after 18 hrs by agar dilution method; format: functional
# [20] = system: Staphylococcus epidermidis; experiment: Antibacterial activity against non-gentamicin-resistant Staphylococcus epidermidis clinical isolate assessed as susceptible isolates after 18 hrs by agar dilution method; format: functional
# [21] = system: Escherichia coli; experiment: Antibacterial activity against gentamicin-resistant Escherichia coli clinical isolate after 18 hrs by agar dilution method; format: functional
# [22] = system: Enterobacter cloacae; experiment: Antibacterial activity against gentamicin-resistant Enterobacter cloacae clinical isolate after 18 hrs by agar dilution method; format: functional
# [23] = system: Citrobacter koseri; experiment: Antibacterial activity against gentamicin-resistant Citrobacter diversus clinical isolate after 18 hrs by agar dilution method; format: functional
# [24] = system: Proteus mirabilis; experiment: Antibacterial activity against gentamicin-resistant Proteus mirabilis clinical isolate after 18 hrs by agar dilution method; format: functional
# [25] = system: Serratia marcescens; experiment: Antibacterial activity against gentamicin-resistant Serratia marcescens clinical isolate after 18 hrs by agar dilution method; format: functional
# [26] = system: Morganella morganii; experiment: Antibacterial activity against gentamicin-resistant Morganella morganii clinical isolate after 18 hrs by agar dilution method; format: functional
# [27] = system: Citrobacter freundii; experiment: Antibacterial activity against gentamicin-resistant Citrobacter freundii clinical isolate after 18 hrs by agar dilution method; format: functional
# [28] = system: Providencia rettgeri; experiment: Antibacterial activity against gentamicin-resistant Proteus rettgeri clinical isolate after 18 hrs by agar dilution method; format: functional
# [29] = system: Staphylococcus aureus; experiment: Antibacterial activity against gentamicin-resistant Staphylococcus aureus clinical isolate after 18 hrs by agar dilution method; format: functional
# [30] = system: Staphylococcus epidermidis; experiment: Antibacterial activity against gentamicin-resistant Staphylococcus epidermidis clinical isolate after 18 hrs by agar dilution method; format: functional
# [31] = system: Escherichia coli; experiment: Antibacterial activity against gentamicin-resistant Escherichia coli clinical isolate assessed as susceptible isolates after 18 hrs by agar dilution method; format: functional
# [32] = system: Enterobacter cloacae; experiment: Antibacterial activity against gentamicin-resistant Enterobacter cloacae clinical isolate assessed as susceptible isolates after 18 hrs by agar dilution method; format: functional
# [33] = system: Klebsiella aerogenes; experiment: Antibacterial activity against gentamicin-resistant Enterobacter aerogenes clinical isolate assessed as susceptible isolates after 18 hrs by agar dilution method; format: functional
# [34] = system: Citrobacter koseri; experiment: Antibacterial activity against gentamicin-resistant Citrobacter diversus clinical isolate assessed as susceptible isolates after 18 hrs by agar dilution method; format: functional
# [35] = system: Proteus mirabilis; experiment: Antibacterial activity against gentamicin-resistant Proteus mirabilis clinical isolate assessed as susceptible isolates after 18 hrs by agar dilution method; format: functional
# [36] = system: Serratia marcescens; experiment: Antibacterial activity against gentamicin-resistant Serratia marcescens clinical isolate assessed as susceptible isolates after 18 hrs by agar dilution method; format: functional
# [37] = system: Morganella morganii; experiment: Antibacterial activity against gentamicin-resistant Morganella morganii clinical isolate assessed as susceptible isolates after 18 hrs by agar dilution method; format: functional
# [38] = system: Citrobacter freundii; experiment: Antibacterial activity against gentamicin-resistant Citrobacter freundii clinical isolate assessed as susceptible isolates after 18 hrs by agar dilution method; format: functional
# [39] = system: Providencia rettgeri; experiment: Antibacterial activity against gentamicin-resistant Proteus rettgeri clinical isolate assessed as susceptible isolates after 18 hrs by agar dilution method; format: functional
# [40] = system: Acinetobacter calcoaceticus; experiment: Antibacterial activity against gentamicin-resistant Acinetobacter calcoaceticus clinical isolate assessed as susceptible isolates after 18 hrs by agar dilution method; format: functional
# [41] = system: Pseudomonas aeruginosa; experiment: Antibacterial activity against gentamicin-resistant Pseudomonas aeruginosa clinical isolate assessed as susceptible isolates after 18 hrs by agar dilution method; format: functional
# [42] = system: Pseudomonas sp.; experiment: Antibacterial activity against gentamicin-resistant Pseudomonas spp. clinical isolate assessed as susceptible isolates after 18 hrs by agar dilution method; format: functional
# [43] = system: Staphylococcus aureus; experiment: Antibacterial activity against gentamicin-resistant Staphylococcus aureus clinical isolate assessed as susceptible isolates after 18 hrs by agar dilution method; format: functional
# [44] = system: Staphylococcus epidermidis; experiment: Antibacterial activity against gentamicin-resistant Staphylococcus epidermidis clinical isolate assessed as susceptible isolates after 18 hrs by agar dilution method; format: functional
# [45] = system: Enterococcus faecalis; experiment: Antibacterial activity against gentamicin-resistant Enterococcus faecalis clinical isolate assessed as susceptible isolates after 18 hrs by agar dilution method; format: functional, organism-based
# [46] = system: Escherichia coli BL21(DE3); experiment: Acetylation activity of AAC(6')-APH(2'') in Escherichia coli BL21(DE3) assessed as production of free pyridine-4-thiolate
# [47] = system: Escherichia coli BL21(DE3); experiment: Phosphorylation activity of AAC(6')-APH(2'') in Escherichia coli BL21(DE3) assessed as oxidation of NADH by pyruvate kinase
smiles,measurement,setting,value
CCN[C@@H]1C[C@H](N)[C@@H](O[C@@H]2OC(C(C)N)=CC[C@@H]2N)[C@H](O)[C@H]1O[C@H]1OC[C@](C)(O)[C@H](NC)[C@H]1O (stereo partly drawn) [VERTILMICIN],MIC50,[1],0.5 µg/mL
same,MIC90,[1],0.5 µg/mL
same,MIC50,[2],0.5 µg/mL
same,MIC90,[2],2 µg/mL
same,MIC,[3],0.25 µg/mL
same,MIC50,[3],0.25 µg/mL
same,MIC90,[3],0.5 µg/mL
same,MIC50,[4],1 µg/mL
same,MIC90,[4],2 µg/mL
same,MIC50,[5],1 µg/mL
same,MIC90,[5],2 µg/mL
same,MIC50,[6],0.5 µg/mL
same,MIC90,[6],8 µg/mL
same,MIC50,[7],2 µg/mL
same,MIC90,[7],8 µg/mL
same,MIC50,[8],8 µg/mL
same,MIC90,[8],32 µg/mL
same,MIC50,[9],1 µg/mL
same,MIC90,[9],1 µg/mL
same,MIC50,[10],1 µg/mL
same,MIC90,[10],2 µg/mL
same,Activity,[11],100%
same,Activity,[12],100%
same,Activity,[13],98.1%
same,Activity,[14],100%
same,Activity,[15],98.4%
same,Activity,[16],78.7%
same,Activity,[17],72.7%
same,Activity,[18],inactive
same,Activity,[19],94.8%
same,Activity,[20],100%
same,MIC50,[21],8 µg/mL
same,MIC90,[21],64 µg/mL
same,MIC50,[22],32 µg/mL
same,MIC90,[22],> 128 µg/mL
same,MIC50,[23],32 µg/mL
same,MIC90,[23],> 128 µg/mL
same,MIC50,[24],32 µg/mL
same,MIC90,[24],> 128 µg/mL
same,MIC50,[25],> 128 µg/mL
same,MIC90,[25],> 128 µg/mL
same,MIC50,[26],8 µg/mL
same,MIC90,[26],32 µg/mL
same,MIC50,[27],8 µg/mL
same,MIC90,[27],32 µg/mL
same,MIC50,[28],8 µg/mL
same,MIC90,[28],64 µg/mL
same,MIC50,[29],4 µg/mL
same,MIC90,[29],16 µg/mL
same,MIC50,[30],2 µg/mL
same,MIC90,[30],16 µg/mL
same,Activity,[31],68.4%
same,Activity,[32],26.3%
same,Activity,[33],30%
same,Activity,[34],7.1%
same,Activity,[35],36.4%
same,Activity,[36],10%
same,Activity,[37],50%
same,Activity,[38],52.6%
same,Activity,[39],53.3%
same,Activity,[40],24%
same,Activity,[41],17.6%
same,Activity,[42],7.7%
same,Activity,[43],83.3%
same,Activity,[44],88.5%
same,Activity,[45],inactive
same,Km,[46],469 µM
same,Km,[47],104 µM
